Values joined by “and” are separate entries in the source; they are usually repeats but may differ in a detail not shown here. Equal values may be shown once. “Also recorded” adds a separate entry of the source.
Experiments:
[1] = tested on: Hep3B2.1-7-Luc liver orthotopic model; test: Liver orthotopic in vivo analysis; conditions: for mean Total Flux: Q3D for a week then QD three weeks, day 28 post grouping; for Whole liver (with tumor) weights: individual animals 1-8; for Tumor sizes vs vehicle: nonparametric ANOVA followed by Kruskal-Wallis test; for Tumor sizes (signal intensity) vs vehicle: two-way ANOVA and Bonferroni post-test
Experimental: In this study, the in vivo therapeutic effect of Compound 1 on liver cancer was evaluated in an orthotopic mouse model using Hep3B2.1-7-Luc cell line. Three groups of orthotopic model in BALB/c nude mice were treated with vehicle, Compound 1 at 10 mg/kg, and Compound 1 at 20 mg/kg orally (p.o.) Q3D for a week followed by QD for three weeks. The mean Total Flux (photons/s/10^6) of the mice in vehicle control group reached 1223.01 photons/s/10^6 at day 28 post grouping. The mean Total Flux (photons/s/10^6) was 464.74 and 306.74 for Compound 1 (10 mg/kg) group and Compound 1 (20 mg/kg) group at day 28 post grouping.
A One-way ANOVA combined with Dunnett post-test was performed to compare the results of serum-derived blood chemistries (including ALT, AST, ALP, TP, ALB, UA, UREA, Glu, TC, TG, Ca, Mg, P, CK, LDH, GLB, A/G and CREA) among vehicle and treatment groups. A nonparametric ANOVA followed by Kruskal-Wallis test was performed to compare serum-derived blood chemistries (including ALT, AST and ALP) among vehicle and treatment groups.

[2] = tested on: SK-HEP-1; test: CellTiter-Glo cytotoxicity, cancer cell line panel; assay type: cell-based; conditions: Homo sapiens, SK-HEP1; SK-HEP-1, Hepatocellular carcinoma
Experimental: (§1) The objective of this study is to investigate potential cell killing effect of Compounds 1-15 on 3 cancer cell lines. 50% inhibition concentration (IC50) was determined for these compounds in various cancer cell lines using CellTiter-Glo™ luminescent cell viability assay at different compound concentrations. Each cell line (e.g., NCI-H209; NCI-H69; and SW1271) was treated with Compounds 1-15 and culture medium contains 0.2% [v/v] DMSO vehicle control. All the cells were cultured in the media supplemented with 10-20% fetal bovine serum at 37° C., 5% CO2 and 95% humidity.
(§2) The objective of this study is to investigate the effect of Compound 1 on cytotoxicity against 61 different types of cancer cell lines. IC50 were values were obtained using CellTiter-Glo™ as described above. Each cell line shown in Table 3 was treated with Compound 1, a standard chemotherapy drug, cisplatin, as reference control and culture medium contains 0.2% [v/v] DMSO vehicle control. All cancer cell lines were cultured in media supplemented with 10-20% fetal bovine serum at 37° C., 5% CO2 and 95% humidity.

[3] = tested on: SW 156; test: CellTiter-Glo cytotoxicity, cancer cell line panel; assay type: cell-based; conditions: SW 156, Renal cell carcinoma
Experimental: as §1, §2

[4] = tested on: HCT 116; test: CellTiter-Glo cytotoxicity, cancer cell line panel; assay type: cell-based; conditions: Homo sapiens; HCT 116, Colon carcinoma
Experimental: as §1, §2

[5] = tested on: JHH-5; test: CellTiter-Glo cytotoxicity, cancer cell line panel; assay type: cell-based; conditions: JHH-5, Hepatocellular carcinoma
Experimental: as §1, §2

[6] = tested on: HuCCT1; test: CellTiter-Glo cytotoxicity, cancer cell line panel; assay type: cell-based; conditions: Homo sapiens, HuCCT-1; HuCCT1, Intrahepatic cholangiocarcinoma
Experimental: as §1, §2

[7] = tested on: MKN45; test: CellTiter-Glo cytotoxicity, cancer cell line panel; assay type: cell-based; conditions: Homo sapiens, MKN-45; MKN45, Gastric adenocarcinoma
Experimental: as §1, §2

[8] = tested on: 769-P; test: CellTiter-Glo cytotoxicity, cancer cell line panel; assay type: cell-based; conditions: Homo sapiens, Renal cell carcinoma
Experimental: as §1, §2

[9] = tested on: COLO 205-Luc colon cancer tumor cells; conditions: mouse, in vivo
Experimental: (§3) Approximately 2.0× Luciferase stably expressing colon cancer tumor cells (COLO 205-Luc) cells suspended in 30 μl of DPBS were injected into cecum wall of BALB/c nude mice.
(§4) The animals were assigned into groups using an Excel-based randomization software performing stratified randomization based upon their bioluminescence intensity. Treatment was initiated according to the predetermined regimen as shown in the experimental design table.
(§5) Mice were administered compound 1 at 10 mg/k daily, 20 mg/kg daily, 10 mg/kg twice daily, 20 mg/kg twice daily, or 40 mg/kg daily.
(§6) The major efficacy endpoint was bioluminescence (intensity values and change from baseline). The surgically inoculated mice were weighed and intraperitoneally administered luciferin at a dose of 150 mg/kg. Ten minutes after the luciferin injection, the animals were pre-anesthetized with the mixture gas of oxygen and isoflurane. When the animals were in a complete anesthetic state, the mice were moved into the imaging chamber for bioluminescence measurements with an IVIS (Lumina II) imaging system. The bioluminescence of the whole animal body, including primary and metastatic tumors, was measured and recorded once per week.
(§7) Tumor Growth Inhibition (TGI) was calculated for each group using the formula: TGI (%)=[1−(Ti−T0)/(Vi−V0)]×100; Ti is the average tumor bioluminescence value of a treatment group on a given day, T0 is the average tumor bioluminescence value of the treatment group on day 0, Vi is the average tumor bioluminescence value of the vehicle control group on the same day with Ti, and V0 is the average tumor bioluminescence value of the vehicle group on day 0.
(§8) For comparison among three or more groups, a one-way ANOVA was performed. When a non-significant F-statistics (a ratio of treatment variance to the error variance) was obtained, comparisons between groups were carried out with Dunnett t(2-sided). All data were analyzed using SPSS 17.0. p<0.05 is considered to be statistically significant.

[10] = tested on: COLO 205-Luc colon cancer tumor cells; test: Colon orthotopic in vivo study; conditions: for Body weight (mean ± SEM): in g (unit assumed)
Experimental: as §3, §4, §5, §6, §7, §8

[11] = 10 mg/kg, BID, day 0 after the start of treatment
[12] = 10 mg/kg, QD, day 0 after the start of treatment
[13] = 20 mg/kg, BID, day 0 after the start of treatment
[14] = 20 mg/kg, QD, day 0 after the start of treatment
[15] = 40 mg/kg, QD, day 0 after the start of treatment

Compound: N=C(N)c1ccc(OCCCCCOc2ccc(C(=N)N)nc2)cc1 [Compound 1, 5-(5-(4-carbamimidoylphenoxy)pentyloxy)picolinimidamide]
- tolerability, body weight loss ([1]; 10 mg/kg and 20 mg/kg p.o.): well tolerated in both 10 mg/kg and 20 mg/kg groups with no obvious body weight loss; also recorded: well tolerated at both doses level tested
- anti-tumor effect compared to vehicle group (Total Flux) ([1]; 10 mg/kg p.o.): significant anti-tumor effect at day 8 to day 18 and day 28
- mean Total Flux ([1]; 10 mg/kg p.o.): 464.74 photons/s/10^6
- Whole liver (with tumor) weights ([1]; 10 mg/kg): 1.334 g and 2.415 g and 2.602 g and 2.280 g and 3.035 g and 1.817 g and 2.019 g and 2.311 g
- Tumor sizes vs vehicle ([1]; 10 mg/kg): no significant difference during the treatment days
- Tumor sizes (signal intensity) vs vehicle ([1]; 10 mg/kg): significant difference at day 25 and extremely significant difference at day 28
- anti-tumor effect compared to vehicle group (Total Flux) ([1]; 20 mg/kg p.o.): significant anti-tumor effect at day 8 to day 28
- mean Total Flux ([1]; 20 mg/kg p.o.): 306.74 photons/s/10^6
- in vivo anti-tumor activity (summary) ([1]; 20 mg/kg, day 25 and day 28): significant in vivo anti-tumor activity
- Whole liver (with tumor) weights ([1]; 20 mg/kg): 1.681 g and 2.243 g and 1.645 g and 2.012 g and 1.926 g and 1.610 g and 1.603 g and 2.260 g
- Tumor sizes vs vehicle ([1]; 20 mg/kg): significant difference at day 28 and extremely significant difference at day 25
- Tumor sizes (signal intensity) vs vehicle ([1]; 20 mg/kg): extremely significant difference at day 22 to day 28
- levels of liver injury/damage markers ALT and AST ([1]; serum, 10 mg/kg and 20 mg/kg): significant reduction in levels of liver injury/damage markers, i.e., ALT and AST, in a dose dependent manner
- IC50 [2]: 4.72 µM
- IC50 [3]: 6.28 µM
- IC50 [4]: 2670 nM
- IC50 [5]: 650 nM
- IC50 [6]: 8.01 µM
- IC50 [7]: 640 nM
- IC50 [8]: 1630 nM
- deaths and morbidity [9]: no deaths and no morbidity
- Relative bioluminescence (mean ± SEM) [10, 11]: 100 ± 0%
- Body weight (mean ± SEM) [10, 11]: 21.0 ± 0.4
- Body weight (mean ± SEM) ([10]; 10 mg/kg, BID, day 3): 21.2 ± 0.4
- Relative bioluminescence (mean ± SEM) ([10]; 10 mg/kg, BID, day 7): 447 ± 103%
- Body weight (mean ± SEM) ([10]; 10 mg/kg, BID, day 7): 21.2 ± 0.4
- Body weight (mean ± SEM) ([10]; 10 mg/kg, BID, day 10): 21.2 ± 0.3
- Relative bioluminescence (mean ± SEM) ([10]; 10 mg/kg, BID, day 14): 1033 ± 385%
- Body weight (mean ± SEM) ([10]; 10 mg/kg, BID, day 14): 21.8 ± 0.4
- Body weight (mean ± SEM) ([10]; 10 mg/kg, BID, day 17): 22.1 ± 0.4
- Relative bioluminescence (mean ± SEM) ([10]; 10 mg/kg, BID, day 22): 2993 ± 1325%
- Body weight (mean ± SEM) ([10]; 10 mg/kg, BID, day 22): 21.2 ± 0.4
- Body weight (mean ± SEM) ([10]; 10 mg/kg, BID, day 24): 21.5 ± 0.3
- Relative bioluminescence (mean ± SEM) ([10]; 10 mg/kg, BID, day 28): 2715 ± 950%
- Body weight (mean ± SEM) ([10]; 10 mg/kg, BID, day 28): 22.0 ± 0.3
- Relative bioluminescence (mean ± SEM) [10, 12]: 100 ± 0%
- Body weight (mean ± SEM) [10, 12]: 20.9 ± 0.5
- Body weight (mean ± SEM) ([10]; 10 mg/kg, QD, day 3): 21.4 ± 0.5
- Relative bioluminescence (mean ± SEM) ([10]; 10 mg/kg, QD, day 7): 351 ± 88%
- Body weight (mean ± SEM) ([10]; 10 mg/kg, QD, day 7): 21.6 ± 0.5
- Body weight (mean ± SEM) ([10]; 10 mg/kg, QD, day 10): 21.5 ± 0.4
- Relative bioluminescence (mean ± SEM) ([10]; 10 mg/kg, QD, day 14): 1425 ± 930%
- Body weight (mean ± SEM) ([10]; 10 mg/kg, QD, day 14): 21.7 ± 0.4
- Body weight (mean ± SEM) ([10]; 10 mg/kg, QD, day 17): 21.7 ± 0.4
- Relative bioluminescence (mean ± SEM) ([10]; 10 mg/kg, QD, day 22): 2819 ± 1388%
- Body weight (mean ± SEM) ([10]; 10 mg/kg, QD, day 22): 21.7 ± 0.5
- Body weight (mean ± SEM) ([10]; 10 mg/kg, QD, day 24): 22.2 ± 0.6
- Relative bioluminescence (mean ± SEM) ([10]; 10 mg/kg, QD, day 28): 3171 ± 1602%
- Body weight (mean ± SEM) ([10]; 10 mg/kg, QD, day 28): 22.6 ± 0.5
- reducing tumor growth ([10]; 20 mg/kg or 40 mg/kg daily): non-statistically significant trend
- Relative bioluminescence (mean ± SEM) [10, 13]: 100 ± 0%
- Body weight (mean ± SEM) [10, 13]: 20.9 ± 0.5
- Body weight (mean ± SEM) ([10]; 20 mg/kg, BID, day 3): 20.9 ± 0.5
- Relative bioluminescence (mean ± SEM) ([10]; 20 mg/kg, BID, day 7): 299 ± 91%
- Body weight (mean ± SEM) ([10]; 20 mg/kg, BID, day 7): 21.1 ± 0.5
- Body weight (mean ± SEM) ([10]; 20 mg/kg, BID, day 10): 21.1 ± 0.5
- Relative bioluminescence (mean ± SEM) ([10]; 20 mg/kg, BID, day 14): 1108 ± 433%
- Body weight (mean ± SEM) ([10]; 20 mg/kg, BID, day 14): 21.5 ± 0.6
- Body weight (mean ± SEM) ([10]; 20 mg/kg, BID, day 17): 21.6 ± 0.6
- Relative bioluminescence (mean ± SEM) ([10]; 20 mg/kg, BID, day 22): 2340 ± 1230%
- Body weight (mean ± SEM) ([10]; 20 mg/kg, BID, day 22): 20.9 ± 0.5
- Body weight (mean ± SEM) ([10]; 20 mg/kg, BID, day 24): 21.3 ± 0.5
- Relative bioluminescence (mean ± SEM) ([10]; 20 mg/kg, BID, day 28): 1877 ± 1076%
- Body weight (mean ± SEM) ([10]; 20 mg/kg, BID, day 28): 21.7 ± 0.5
- Relative bioluminescence (mean ± SEM) [10, 14]: 100 ± 0%
- Body weight (mean ± SEM) [10, 14]: 20.8 ± 0.4
- Body weight (mean ± SEM) ([10]; 20 mg/kg, QD, day 3): 20.8 ± 0.3
- Relative bioluminescence (mean ± SEM) ([10]; 20 mg/kg, QD, day 7): 171 ± 46%
- Body weight (mean ± SEM) ([10]; 20 mg/kg, QD, day 7): 20.8 ± 0.4
- Body weight (mean ± SEM) ([10]; 20 mg/kg, QD, day 10): 21.0 ± 0.3
- Relative bioluminescence (mean ± SEM) ([10]; 20 mg/kg, QD, day 14): 817 ± 269%
- Body weight (mean ± SEM) ([10]; 20 mg/kg, QD, day 14): 21.2 ± 0.3
- Body weight (mean ± SEM) ([10]; 20 mg/kg, QD, day 17): 21.3 ± 0.4
- Relative bioluminescence (mean ± SEM) ([10]; 20 mg/kg, QD, day 22): 923 ± 354%
- Body weight (mean ± SEM) ([10]; 20 mg/kg, QD, day 22): 21.1 ± 0.4
- Body weight (mean ± SEM) ([10]; 20 mg/kg, QD, day 24): 21.6 ± 0.3
- Relative bioluminescence (mean ± SEM) ([10]; 20 mg/kg, QD, day 28): 1613 ± 1022%
- Body weight (mean ± SEM) ([10]; 20 mg/kg, QD, day 28): 21.5 ± 0.4
- Relative bioluminescence (mean ± SEM) [10, 15]: 100 ± 0%
- Body weight (mean ± SEM) [10, 15]: 20.7 ± 0.5
- Body weight (mean ± SEM) ([10]; 40 mg/kg, QD, day 3): 20.7 ± 0.5
- Relative bioluminescence (mean ± SEM) ([10]; 40 mg/kg, QD, day 7): 210 ± 57%
- Body weight (mean ± SEM) ([10]; 40 mg/kg, QD, day 7): 20.2 ± 0.4
- Body weight (mean ± SEM) ([10]; 40 mg/kg, QD, day 10): 20.3 ± 0.5
- Relative bioluminescence (mean ± SEM) ([10]; 40 mg/kg, QD, day 14): 357 ± 109%
- Body weight (mean ± SEM) ([10]; 40 mg/kg, QD, day 14): 20.5 ± 0.5
- Body weight (mean ± SEM) ([10]; 40 mg/kg, QD, day 17): 20.5 ± 0.5
- Relative bioluminescence (mean ± SEM) ([10]; 40 mg/kg, QD, day 22): 525 ± 145%
- Body weight (mean ± SEM) ([10]; 40 mg/kg, QD, day 22): 20.4 ± 0.5
- Body weight (mean ± SEM) ([10]; 40 mg/kg, QD, day 24): 21.0 ± 0.5
- Relative bioluminescence (mean ± SEM) ([10]; 40 mg/kg, QD, day 28): 512 ± 206%
- Body weight (mean ± SEM) ([10]; 40 mg/kg, QD, day 28): 21.3 ± 0.5
- body weight loss as indirect measure of toxicity ([10]; all dose groups 10-40 mg/kg QD, 10-20 mg/kg BID): No groups lost weight obviously
- toxicity / tolerability ([10]; tumor-bearing BALB/c nude mice, all dose groups): no obvious toxicity; also recorded: does not have significant toxicity and is well tolerated
